Measured values: patent US20020160091A1, “Acesulfame salt, process for its preparation and its use” (priority 2001, published 2002)

Columns and labels:
[1] = known property named for comparison; cited from earlier work
[2] = known property named for comparison; cited from earlier work; remark: listed apart in the source
[3] = compared with acesulfame potassium salt

CC1=CC(=O)NS(=O)(=O)O1.N [acesulfame ammonium salt]
difference found by the testers in extensive taste tests (acesulfame ammonium versus acesulfame potassium): no difference was found
sweet taste [3]: exactly the same pleasant sweet taste as the acesulfame potassium salt
sweetening power [3]: the same sweetening power as the acesulfame potassium salt
sweetness profile [3]: exactly the same sweetness profile

CC(=O)O.N [ammonium acetate salt, ammonium acetate]
hygroscopicity (comparison salt) [1]: hygroscopic

Cl.N [ammonium chloride salt, ammonium chloride]
salty-bitter taste (comparison salt) [2]: salty-bitter
